{
  "source": "patent US10576166B2",
  "about": "“Liver specific delivery of messenger RNA” (TRANSLATE BIO, INC., priority 2009, dated 2020)",
  "key": {"[1]": {"tested_on": "firefly luciferase protein in livers and spleens", "assay": "Bioluminescence assay of expressed firefly luciferase in liver and spleen (biodistribution analysis)", "type": "in vivo", "details": "female CD-1 mice, single 200 μg i.v. dose of encapsulated FFL mRNA, 4 hours post-injection", "procedure": "(§1) All studies were performed using female CD-1 mice of approximately 3-weeks age at the beginning of each experiment. Samples were introduced by a single bolus tail-vein injection of an equivalent total dose of 200 μg of encapsulated FFL mRNA. Four hours post-injection the mice were sacrificed and perfused with saline.\n(§2) The liver and spleen of each mouse was harvested, apportioned into three parts, and stored in either, (i) 10% neutral buffered formalin, (ii) snap-frozen and stored at −80° C. for bioluminescence analysis (see below), or for in situ hybridization studies, or (iii) liver sections were isolated in isopentane (2-methylbutane) bath, maintained at −35° C., rinsed with 1×PBS, lightly patted with a kimwipe to remove any excess fluid, placed in the bath for approximately 5-7 minutes, after which the liver was removed, wrapped in foil and stored in a small sterile plastic bag at −80° C. until ready for assay.\nThe bioluminescence assay was conducted using a Promega Luciferase Assay System (Item # E1500 Promega). […]\nThe Luciferase Assay Reagent was prepared by adding 10 mL of Luciferase Assay Buffer to Luciferase Assay Substrate and mix via vortex. […] Each plate was inserted into the appropriate chambers using a Molecular Device Flex Station instrument and measure the luminescence (measured in relative light units (RLU)). […]"}, "[2]": {"tested_on": "codon-optimized firefly luciferase mRNA in liver", "assay": "In situ hybridization of liver sections with 35S-labeled riboprobes", "type": "in vivo, CD-1 mice", "details": "livers of injected animals, 100× magnification, FIG. 4A", "procedure": "as §1, §2\nSlide preparation and analysis was performed as follows: Each liver was frozen at −35° C. according to the procedure described above. The frozen livers were cut into 6 micrometer sections and mounted onto glass microscope slides. […]\nPhotographic development was carried out in Kodak D-19. Sections were counterstained lightly with cresyl violet and analyzed using brightfield and darkfield microscopy. […]"}, "[3]": {"tested_on": "firefly luciferase protein in hepatocytes", "assay": "Immunohistochemical analysis of liver with anti-firefly antibody", "type": "in vivo", "details": "FFL mRNA in lipid transfer vehicle of cholesterol, DOPE, DLinDMA and DMG-PEG2000; treated mice, FIGS. 5B and 5C", "excerpt": "FIG. 5 illustrates immunohistochemical staining of mouse livers for the detection of firefly luciferase protein. […] Luciferase protein is observed throughout the cytoplasm of the hepatocytes. The abbreviations (S) and (H) correspond to sinusoidal cells and hepatocytes, respectively.\nThe FFL mRNA was packaged and delivered via a lipid transfer vehicle formulation consisting of cholesterol, DOPE, DLinDMA, and DMG-PEG2000 in a manner similar to that described supra.\nThe translation of the FFL mRNA into its respective protein has been successfully identified via immunohistochemical analysis (FIG. 5)."}},
  "data": [
    {"compound": "CC(C)CCCC(C)C1CCC2C3CC=C4CC(OC(=O)CCc5cnc[nH]5)CCC4(C)C3CCC12C", "note": "[ICE, (3S,10R,13R,17R)-10,13-dimethyl-17-((R)-6-methylheptan-2-yl)-2,3,4,7,8,9,10,11,12,13,14,15,16,17-tetradecahydro-1H-cyclopenta[a]phenanthren-3-yl 3-(1H-imidazol-4-yl)propanoate]", "values": [
      {"measurement": "Luminescence / mRNA delivery in liver versus spleen", "setting": "[1]", "value": "enriched delivery of mRNA to liver versus spleen"}
    ]},
    {"compound": "FFL mRNA: Codon-optimized firefly luciferase messenger RNA, SEQ ID NO: 1, with 5′ Cap1 and 3′ poly(A) tail of approximately 200 nucleotides", "values": [
      {"measurement": "Detection of FFL mRNA in liver, dark field illumination, antisense probe", "setting": "[2]", "value": "detected as bright spots"},
      {"measurement": "Detection of expressed firefly protein by immunohistochemistry", "setting": "[3]", "value": "can be observed in the hepatocytes of treated mice"}
    ]}
  ]
}
